In PMC11582173, “Synthesis, cytotoxicity, anti-inflammatory, anti-metastatic and anti-oxidant activities of novel chalcones incorporating 2-phenoxy-N-arylacetamide and thiophene moieties: induction of apoptosis in MCF7 and HEP2 cells” (Naunyn-Schmiedeberg's Archives of Pharmacology, 2024):
Several values for one entry are separate records, joined by “and”; a condition that tells them apart may be missing. Equal entries are not always repeated.

What was measured:
Type in all cases: cell-based, human
Malondialdehyde (MDA) = experiment: ELISA, MDA concentration
Protocol: (§1) The concentrations of matrix metalloproteinase-2 (MMP2), matrix metalloproteinase-9 (MMP9), Bcl2, BAX, P53, Malondialdehyde (MDA), Glutathione (GSH), caspase 8, caspase 9 and IL-6 were measured quantitatively in 5c treated MCF7 and HEP2 cells using ELISA (Enzyme-Linked Immunosorbent Assay) (Table 4). Gelatinases are a collective word for MMP-2 and MMP-9, where MMP-2 is gelatinase-A and MMP-9 is gelatinase-B. Solid tumor invasion, metastasis, and angiogenesis have long been linked to gelatinases (Das et al. [2021]). […] Bcl2 is a crucial protein that targets apoptosis inhibition. It is regarded as a predictive biomarker or therapeutic target in the diagnosis of cancer due to its broad expression in a variety of cancers (Porter et al. [2009]). […] The pro-apoptotic protein BAX permeabilizes the mitochondrial outer membrane by changing from a cytosolic monomer to a hazardous oligomer triggering the apoptosis process (Fulda and Debatin [2006]). […] P53 transcription factor performs an essential tumor suppressor role by coordinating a wide range of physiological responses, including DNA repair, cell cycle arrest, cellular senescence, cell death, cell differentiation, and metabolism (Liebl and Hofmann [2021]). It was activated in MCF7 and HEP2-treated cells with values (4.28 and 3.109 ng/mL), respectively, compared to their controls (3.44 and 2.06 ng/mL). […]

Glutathione (GSH) = experiment: ELISA, GSH concentration
Protocol: as §1

MCF7 cells = experiment: Flow cytometric analysis of cell cycle, MCF7; conditions: MCF7, IC50 of 5c, 48 h
Protocol: In DMEM-supplemented media, cells were plated in 12-well plates at a cell density of 6–8×10^5 per well. After twenty-four hours, cells were cultured for an additional 48 hours with the IC50 of the target compound. The untreated cells were used as a negative control. After 48 h of incubation, the treated cells were centrifuged at 1,200 rpm and 4 °C for 10 min. After discarding the supernatant, the wells were then given a single phosphate-buffered saline (PBS) wash and then centrifuged for 10 min at 1,200 rpm. Trypsin/EDTA was used to collect the cells, and after one PBS wash, they were resuspended in 0.5 mL of 0.05% Triton X-100 for 10 min at room temperature. Each cell suspension was stained by being given 1 mL of 50 µg/mL propidium iodide (PI) to be left at room temperature in the darkness for 20 minutes. The analysis of the cell cycle was done by a flow cytometer (Becton Dickenson (BD) FACSCalibur, USA) (Michalkova et al. [2022]).

Question: How did the MDA concentration (Malondialdehyde (MDA); 5c treated HEP2 cells, untreated 17.44±0.309) turn out when COc1ccc(NC(=O)COc2ccc(C=CC(=O)c3cccs3)cc2)cc1 [Compound 5c, N-(4-Methoxyphenyl)-2-(4-(3-oxo-3-(thiophen-2-yl)prop-1-en-1-yl)phenoxy)acetamide] was run?
Answer: The MDA concentration was 11.988 nM and 11.988 ± 0.178 nM.

Question: What about the MDA concentration (Malondialdehyde (MDA); 5c treated MCF7 cells, untreated 15.79±0.178) of the same compound?
Answer: The MDA concentration was 8.79 nM and 8.79 ± 0.309 nM.

Question: And the GSH concentration (Glutathione (GSH); 5c treated HEP2 cells, untreated 0.668±0.010)?
Answer: The GSH concentration was 0.821 ng/mL and 0.821 ± 0.009 ng/mL.

Question: And the GSH concentration (Glutathione (GSH); 5c treated MCF7 cells, untreated 0.737±0.009)?
Answer: The GSH concentration was 0.939 ng/mL and 0.939 ± 0.022 ng/mL.

Question: And the “Percentage of DNA in G2-M phase” value (MCF7 cells; untreated control 8.95±0.38)?
Answer: Its value is 2.8% and 2.855±0.07778%.

Question: What about the “Percentage of DNA in S phase” value (MCF7 cells; untreated control 45.405±1.97283) of the same compound?
Answer: Its value is 42.84% and 42.845±0.4596%.

Question: And the “Percentage of DNA in G0-G1 phase” value (MCF7 cells; untreated control 45.585±1.548)?
Answer: Its value is 54.3% and 54.3±0.5374%.
